Here are results for 23 compounds from patent US11208407B2, “Substituted phenyl compounds as indoleamine 2,3-dioxygenase (IDO) inhibitors” (Merck Sharp & Dohme Corp., priority 2017, dated 2021).

In the test the target is IDO1 (Homo sapiens, UniProt P14902). Briefly: IDO1 Cellular Assay in HeLa Cells Stimulated with IFNγ. The test is classed as cell-based. The conditions noted are these: IFNγ 100 ng/mL, 300 uM L-tryptophan, about 48 hours, read-out: IDO HeLa Cell Assay, IC50. As to the method:
Biological Assays IDO1 Cellular Assay in HeLa Cells Stimulated with IFNγ
HeLa cells were cultured in complete HeLa culture medium (90% EMEM, 10% heat-inactivated fetal bovine serum) and expanded to about 1×10^9 cells. The cells were then collected and frozen down at 1×10^7 cells/vial in 1 mL frozen medium (90% complete HeLa culture medium, 10% DMSO).
Compounds to be tested were serially diluted in ten 3-fold steps in DMSO starting from 10 mM DMSO stocks in Echo low volume plate(s). Compound dilutions or DMSO alone were then dispensed from the dilution plate(s) into Greiner black 384-well assay plate(s) (catalog #781086, 50 nL/well) using an Echo 550 acoustic liquid handler (Labcyte).
Frozen HeLa cells were thawed and transferred into HeLa assay medium (99% complete HeLa culture medium, 1% Pen/Strep) with 20 mL medium/vial of cells. The cells were spun down at 250 g in a table top centrifuge for 5 min and suspended in same volume of HeLa assay medium. The cells were then counted and adjusted to a density of 2×10^5 cells/mL in HeLa assay medium. Sterile L-tryptophan were added to the cells with final concentration of 300 uM L-tryptophan. A small aliquot (2 mL/plate) of HeLa cells were set aside and were not treated with IFNγ, to serve as the Max-E control.
HeLa cells with and without IFNγ were dispensed to the respective wells of 384-well assay plates containing the compounds. The plates were incubated for about 48 hours at a 37° C., 5% CO2 incubator. Afterwards, 12 μL of 0.5 M methyl isonipecotate in dimethyl sulfoxide were added into each well and the plates were sealed and incubated at 37° C. without CO2 overnight. The plates were centrifuged for 1 min at 200×g. The resulting fluorescence was measured in a Spectramax plate reader (Molecular Devices) with a 400 nm excitation filter and a 510 nm emission filter.
The fluorescence intensity of each well was corrected for the background observed in wells with non-IFNγ-treated cells and was expressed as a fraction of the intensity observed in wells of IFNγ-treated cells and DMSO only. Potencies were calculated by linear least squares fit to the four parameter logistic IC50 equation.

Sequence of IDO1 (P14902 whole entry): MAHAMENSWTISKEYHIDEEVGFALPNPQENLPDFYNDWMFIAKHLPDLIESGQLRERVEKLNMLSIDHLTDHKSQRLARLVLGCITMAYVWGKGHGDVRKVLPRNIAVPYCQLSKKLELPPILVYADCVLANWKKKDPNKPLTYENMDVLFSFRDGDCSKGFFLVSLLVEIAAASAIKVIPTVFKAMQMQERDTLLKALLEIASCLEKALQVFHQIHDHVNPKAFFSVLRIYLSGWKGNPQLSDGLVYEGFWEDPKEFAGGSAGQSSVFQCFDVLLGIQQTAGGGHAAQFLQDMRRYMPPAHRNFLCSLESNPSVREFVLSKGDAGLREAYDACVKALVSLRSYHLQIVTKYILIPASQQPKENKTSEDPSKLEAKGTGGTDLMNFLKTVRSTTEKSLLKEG

A word on the IC50: it is the concentration needed to halve the response being measured. On to `N#Cc1cccc(NC(=O)c2ccc(C3(c4nc5ncc(C#N)cc5[nH]4)CC(F)(F)C3)cc2)c1` [Example 38, 4-[1-(6-cyano-1H-imidazo[4,5-b]pyridin-2-yl)-3,3-difluorocyclobutyl]-N-(3-cyanophenyl)benzamide], for which the IC50 was 5.09 nM.
Next, `CC(C)CNC(=O)c1ccc(C2(c3nc4ncc(C(F)(F)F)cc4[nH]3)CCC2)cc1` [Example 35, N-(2-methylpropyl)-4-{1-[6-(trifluoromethyl)-1H-imidazo[4,5-b]pyridin-2-yl]cyclobutyl}benzamide]: 39.6 nM; `O=C(Nc1ccc(C2(c3nc4cc(Br)cnc4[nH]3)CCC2)cc1Cl)c1cccc(Br)c1` [Example 12, 3-Bromo-N-(4-(1-(6-bromo-3H-imidazo[4,5-b]pyridin-2-yl)cyclobutyl)-2-chlorophenyl)benzamide]: 1.73 nM; `N#Cc1ccc(F)c(NC(=O)c2ccc(C3(c4nc5ncc(C(F)(F)F)cc5[nH]4)CCC3)cc2)c1` [Example 36, N-(5-cyano-2-fluorophenyl)-4-{1-[6-(trifluoromethyl)-1H-imidazo[4,5-b]pyridin-2-yl]cyclobutyl}benzamide]: 7.69 nM.
Next, `COc1cc(C(F)(F)F)ncc1-c1ccc(C2(c3nc4cc(C(F)(F)F)cnc4[nH]3)COC2)cc1` [Example 41, 2-(3-{4-[4-methoxy-6-(trifluoromethyl)pyridin-3-yl]phenyl}oxetan-3-yl)-6-(trifluoromethyl)-3H-imidazo[4,5-b]pyridine]: 7.64 nM; `O=C(NC1CCCCC1)c1ccc(C2(c3nc4ncc(C(F)(F)F)cc4[nH]3)CCC2)cc1` [Example 34, N-cyclohexyl-4-{1-[6-(trifluoromethyl)-1H-imidazo[4,5-b]pyridin-2-yl]cyclobutyl}benzamide]: 152 nM; `N#Cc1cccc(C(=O)Nc2ccc(C3(c4nc5cc(C#N)cnc5[nH]4)CCC3)cc2C#N)c1` [Example 14, 3-cyano-N-(2-cyano-4-(1-(6-cyano-3H-imidazo[4,5-b]pyridin-2-yl)cyclobutyl)phenyl)benzamide]: 140 nM.
The same measure for `N#Cc1cccc(NC(=O)c2ccc(C3(c4nc5ncc(C(F)(F)F)cc5[nH]4)CCC3)cc2)c1` [Example 30, N-(3-cyanophenyl)-4-{1-[6-(trifluoromethyl)-1H-imidazo[4,5-b]pyridin-2-yl]cyclobutyl}benzamide]: 5.09 nM; for `O=C(Nc1cc(Cl)ccc1F)c1ccc(C2(c3nc4ncc(C(F)(F)F)cc4[nH]3)CCC2)cc1` [Example 37, N-(5-chloro-2-fluorophenyl)-4-{1-[6-(trifluoromethyl)-1H-imidazo[4,5-b]pyridin-2-yl]cyclobutyl}benzamide]: 2.03 nM.
In the case of `Cc1cc(C2(c3nc4cc(C#N)cnc4[nH]3)CCC2)ccc1NC(=O)c1cccc(C#N)c1` [Example 15, 3-Cyano-N-(4-(1-(6-cyano-3H-imidazo[4,5-b]pyridin-2-yl)cyclobutyl)-2-methylphenyl)benzamide], the IC50 worked out at 15.9 nM.
`N#Cc1cnc2nc(C3(c4ccc(C(=O)NC5CCCCC5)cc4)CC(F)(F)C3)[nH]c2c1` [Example 28, 4-(1-(6-Cyano-1H-imidazo[4,5-b]pyridin-2-yl)-3,3-difluorocyclobutyl)-N-cyclohexylbenzamide]: the IC50 is 890 nM.
Consider `N#Cc1cnc2nc(C3(c4ccc(NC(=O)c5cccc(Cl)c5)cc4)CCC3)[nH]c2c1` [Example 2, 3-Chloro-N-(4-(1-(6-cyano-1H-imidazo[4,5-b]pyridin-2-yl)cyclobutyl)phenyl)benzamide], for which the IC50 turned out to be 1.97 nM.
Next, `N#Cc1cccc(C(=O)Nc2ccc(C3(c4nc5ccc(Cl)cc5[nH]4)CC(O)C3)cc2)c1` (centres unmarked) [Example 23, N-(4-(1-(6-chloro-1H-benzo[d]imidazol-2-yl)-3-hydroxycyclobutyl)phenyl)-3-cyanobenzamide]: 43.4 nM; `Cc1cccc(NC(=O)c2ccc(C3(c4nc5ncc(C#N)cc5[nH]4)CC(F)(F)C3)cc2)n1` [Example 29, 4-(1-(6-Cyano-1H-imidazo[4,5-b]pyridin-2-yl)-3,3-difluorocyclobutyl)-N-(6-methylpyridin-2-yl)benzamide]: 590 nM; `C=Cc1cc(C2(c3nc4cc(C#N)cnc4[nH]3)CCC2)ccc1Nc1ccn(C)n1` [Example 20, 2-(1-(4-((1-Methyl-1H-pyrazol-3-yl)amino)-3-vinylphenyl)cyclobutyl)-3H-imidazo[4,5-b]pyridine-6-carbonitrile]: 176 nM.
Next, `O=C(Nc1ccc(F)cc1F)c1ccc(C2(c3nc4ncc(C(F)(F)F)cc4[nH]3)CCC2)cc1` [Example 32, N-(2,4-difluorophenyl)-4-{1-[6-(trifluoromethyl)-1H-imidazo[4,5-b]pyridin-2-yl]cyclobutyl}benzamide]: 2.65 nM; `N#Cc1cccc(C(=O)Nc2ccc(C3(c4nc5cc(C(F)(F)F)cnc5[nH]4)CCC3)cc2)c1` [Example 6, 3-Cyano-N-(4-(1-(6-(trifluoromethyl)-3H-imidazo[4,5-b]pyridin-2-yl)cyclobutyl)phenyl)benzamide]: 3.18 nM.
Next, `N#Cc1cnc2[nH]c(C3(c4ccc(NC(=O)OC5CC5)cc4)CCC3)nc2c1` [Example 22, Cyclopropyl (4-(1-(6-cyano-3H-imidazo[4,5-b]pyridin-2-yl)cyclobutyl)phenyl)carbamate]: 41.8 nM.
As to `O=C(Nc1cccc(F)c1)c1ccc(C2(c3nc4ncc(C(F)(F)F)cc4[nH]3)CCC2)cc1` [Example 31, N-(3-fluorophenyl)-4-{1-[6-(trifluoromethyl)-1H-imidazo[4,5-b]pyridin-2-yl]cyclobutyl}benzamide], the IC50 was 2.09 nM.
Next, `O=C(Nc1ccc(C2(c3nc4ccccc4[nH]3)CCC2)cc1)c1cccc(Cl)c1` [Example 4, N-(4-(1-(1H-benzo[d]imidazol-2-yl)cyclobutyl)phenyl)-3-chlorobenzamide]: 3.01 nM.
The same measure for `Cn1ccc(Nc2ccc(C3(c4nc5cc(C#N)cnc5[nH]4)CCC3)cc2CO)n1` [Example 21, 2-(1-(3-(Hydroxymethyl)-4-((1-methyl-1H-pyrazol-3-yl)amino)phenyl)cyclobutyl)-3H-imidazo[4,5-b]pyridine-6-carbonitrile]: 819 nM.
Consider `N#Cc1cccc(C(=O)Nc2ccc(C3(c4nc5cc(C#N)cnc5[nH]4)CCC3)cc2Cl)c1` [Example 13, N-(2-chloro-4-(1-(6-cyano-3H-imidazo[4,5-b]pyridin-2-yl)cyclobutyl)phenyl)-3-cyanobenzamide], for which the IC50 worked out at 7.18 nM.
Next, `O=C(Nc1cncc(Cl)c1)c1ccc(C2(c3nc4ncc(C(F)(F)F)cc4[nH]3)CCC2)cc1` [Example 33, N-(5-chloropyridin-3-yl)-4-{1-[6-(trifluoromethyl)-1H-imidazo[4,5-b]pyridin-2-yl]cyclobutyl}benzamide]: 9.94 nM.
